# Measurements published in patent US12077503B2, “Substituted cyclic amides and their use as herbicides” (FMC CORPORATION, priority 2015, dated 2024).
# What was measured:
# Assay type in all cases: in vivo
# [1] = tested on: ragweed (common ragweed, Ambrosia elatior); test: Test A postemergence
# Summary of the method: (§1)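 Visual injury scores from 0, no effect, to 100, complete control, were assigned versus untreated controls roughly 10 d after treatment in the greenhouse. Test chemicals, formulated with surfactant in a non-phytotoxic solvent, were applied to planted seeds as a preemergence soil spray or postemergence to one- to two-leaf plants 2 to 10 cm tall, in loam–sand soil.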
# corn (Zea mays) = test: Test A postemergence
# Summary of the method: as §1
# [2] = tested on: Galium (catchweed bedstraw, Galium aparine); test: Test A postemergence
# Summary of the method: as §1
# [3] = tested on: barnyardgrass (Echinochloa crus-galli); test: Test A postemergence
# Summary of the method: as §1
# [4] = tested on: pigweed (Amaranthus retroflexus); test: Test A postemergence
# Summary of the method: as §1
# [5] = tested on: giant foxtail (Setaria faberii); test: Test A postemergence
# Summary of the method: as §1
# Kochia (Kochia scoparia) [6] = test: Test A postemergence
# Summary of the method: as §1
# [7] = tested on: ryegrass, Italian (Italian ryegrass, Lolium multiflorum); test: Test A postemergence
# Summary of the method: as §1
# [8] = tested on: wheat (Triticum aestivum); test: Test A postemergence
# Summary of the method: as §1
# [9] = tested on: blackgrass (Alopecurus myosuroides); test: Test A postemergence
# Summary of the method: as §1
# [10] = tested on: ragweed (common ragweed, Ambrosia elatior); test: Test A preemergence
# Summary of the method: as §1
# [11] = tested on: barnyardgrass (Echinochloa crus-galli); test: Test A preemergence
# Summary of the method: as §1
# [12] = tested on: pigweed (Amaranthus retroflexus); test: Test A preemergence
# [13] = tested on: giant foxtail (Setaria faberii); test: Test A preemergence
# Summary of the method: as §1
# Kochia (Kochia scoparia) [14] = test: Test A preemergence
# Summary of the method: as §1
# [15] = tested on: ryegrass, Italian (Italian ryegrass, Lolium multiflorum); test: Test A preemergence
# Summary of the method: as §1
# [16] = tested on: barnyardgrass (Echinochloa crus-galli); test: Test B flooded paddy test; conditions: Flood, 0 to 100 scale where 0 is no effect and 100 is complete control, 13 to 15 d
# Summary of the method: (§2)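 Rating scale 0–100 (visual, vs untreated controls) after a 13–15 d greenhouse period; application to the flood layer, 3 cm above soil and maintained; plants at 2-leaf stage when treated.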
# [17] = tested on: ducksalad (Heteranthera limosa); test: Test B flooded paddy test; conditions: Flood, 0 to 100 scale where 0 is no effect and 100 is complete control, 13 to 15 d
# Summary of the method: as §2
# [18] = tested on: sedge, umbrella (small-flower umbrella sedge, Cyperus difformis); test: Test B flooded paddy test; conditions: Flood, 0 to 100 scale where 0 is no effect and 100 is complete control, 13 to 15 d
# Summary of the method: as §2
# rice (Oryra sativa) = test: Test B flooded paddy test; conditions: Flood, 0 to 100 scale where 0 is no effect and 100 is complete control, 13 to 15 d
# Summary of the method: as §2
# [19] = tested on: ragweed (common ragweed, Ambrosia elatior); test: Test C preemergence; conditions: for Plant response rating, Ragweed: scale 0 to 100, 0 no effect, 100 complete control
# Summary of the method: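 After treatment with surfactant-containing formulations, either preemergence to seeds in loam-sand soil or postemergence to potted seedlings at 2–18 cm, plants were kept 13–15 d in a greenhouse. Observers then compared them with controls and assigned ratings, 0 signifying no effect and 100 complete control.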
# [20] = 125 g ai/ha, postemergence, visual rating after approx. 10 d, 0 to 100 scale (0 no effect, 100 complete control)
# [21] = Postemergence, 500 g ai/ha, 0 to 100 scale where 0 is no effect and 100 is complete control
# [22] = 125 g ai/ha, Preemergence, visual injury after approximately 10 d, 0 to 100 scale where 0 is no effect and 100 is complete control
# [23] = 500 g ai/ha, preemergence, 0 to 100 scale, 0 = no effect, 100 = complete control
# [24] = 125 g ai/ha, postemergence, visual injury rating on 0 to 100 scale (0 no effect, 100 complete control), approx. 10 d
# [25] = 500 g ai/ha, postemergence, 0 to 100 scale, 0 no effect, 100 complete control
# [26] = 125 g ai/ha, preemergence, 0 to 100 scale (0 no effect, 100 complete control)
# [27] = Preemergence, 500 g ai/ha, visual injury approx. 10 d
smiles,measurement,setting,value
CN1CC(c2cccc(OC(F)F)c2)C(C(=O)Nc2cccc(F)c2F)C1=O (centres unmarked) [Compound 616],"Plant response rating, Ragweed",[1]; [20],0
same,"Plant response rating, Ragweed",[1]; [21],20
same,"Plant response rating, Corn",corn (Zea mays); [20],70
same,"Plant response rating, Corn",corn (Zea mays); [21],80
same,"Plant response rating, Galium",[2]; [20],60
same,"Plant response rating, Galium",[2]; [21],70
same,"Plant response rating, Barnyardgrass",[3]; [20],90
same,"Plant response rating, Barnyardgrass",[3]; [21],90
same,"Plant response rating, Pigweed",[4]; [20],40
same,"Plant response rating, Pigweed",[4]; [21],60
same,"Plant response rating, Foxtail, Giant",[5]; [20],90
same,"Plant response rating, Foxtail, Giant",[5]; [21],90
same,"Plant response rating, Kochia",Kochia (Kochia scoparia) [6]; [20],50
same,"Plant response rating, Kochia",Kochia (Kochia scoparia) [6]; [21],70
same,"Plant response rating, Ryegrass, Italian",[7]; [20],50
same,"Plant response rating, Ryegrass, Italian",[7]; [21],80
same,"Plant response rating, Wheat",[8]; [20],60
same,"Plant response rating, Wheat",[8]; [21],70
same,"Plant response rating, Blackgrass",[9]; [20],50
same,"Plant response rating, Blackgrass",[9]; [21],60
same,"Plant response rating, Ragweed",[10]; [22],80
same,"Plant response rating, Ragweed",[10]; [23],80
same,"Plant response rating, Barnyardgrass",[11]; [22],90
same,"Plant response rating, Barnyardgrass",[11]; [23],90
same,"Plant response rating, Pigweed",[12]; [22],80
same,"Plant response rating, Pigweed",[12]; [23],90
same,"Plant response rating, Foxtail, Giant",[13]; [22],90
same,"Plant response rating, Foxtail, Giant",[13]; [23],100
same,"Plant response rating, Kochia",Kochia (Kochia scoparia) [14]; [22],70
same,"Plant response rating, Kochia",Kochia (Kochia scoparia) [14]; [23],80
same,"Plant response rating, Ryegrass, Italian",[15]; [22],80
same,"Plant response rating, Ryegrass, Italian",[15]; [23],90
same,"Plant response rating, Barnyardgrass",[16]; 250 g ai/ha,70
same,"Plant response rating, Ducksalad",[17]; 250 g ai/ha,100
same,"Plant response rating, Sedge, Umbrella",[18]; 250 g ai/ha,0
same,"Plant response rating, Rice",rice (Oryra sativa); 250 g ai/ha,10
same,"Plant response rating (scale of 0 to 100), Ragweed","[19]; 31 g ai/ha, 0 is no effect, 100 is complete control",25
same,"Plant response rating, Ragweed",[19]; 62 g ai/ha,25
same,"Plant response rating, Ragweed",[19]; 125 g ai/ha,50
same,"Plant response rating, Ragweed",[19]; 250 g ai/ha,75
O=C1NCC(c2cccc(OC(F)F)c2)C1C(=O)Nc1ccc(F)cc1F (centres unmarked) [Compound 421],Ragweed plant response rating,[1]; [24],20
same,"Plant response rating, Ragweed",[1]; [25],30
same,Corn plant response rating,corn (Zea mays); [24],0
same,"Plant response rating, Corn",corn (Zea mays); [25],70
same,Galium plant response rating,[2]; [24],50
same,"Plant response rating, Galium",[2]; [25],60
same,Barnyardgrass plant response rating,[3]; [24],70
same,"Plant response rating, Barnyardgrass",[3]; [25],90
same,Pigweed plant response rating,[4]; [24],0
same,"Plant response rating, Pigweed",[4]; [25],30
same,"Foxtail, Giant plant response rating",[5]; [24],80
same,"Plant response rating, Foxtail, Giant",[5]; [25],90
same,Kochia plant response rating,Kochia (Kochia scoparia) [6]; [24],0
same,"Plant response rating, Kochia",Kochia (Kochia scoparia) [6]; [25],20
same,"Ryegrass, Italian plant response rating",[7]; [24],20
same,"Plant response rating, Ryegrass, Italian",[7]; [25],40
same,Wheat plant response rating,[8]; [24],0
same,"Plant response rating, Wheat",[8]; [25],40
same,Blackgrass plant response rating,[9]; [24],20
same,"Plant response rating, Blackgrass",[9]; [25],50
same,"Plant response rating, Ragweed",[10]; [26],30
same,"Ragweed plant response rating (0 to 100 scale, 0 is no effect, 100 is complete control)",[10]; [27],40
same,"Plant response rating, Barnyardgrass",[11]; [26],90
same,"Barnyardgrass plant response rating (0 to 100 scale, 0 is no effect, 100 is complete control)",[11]; [27],90
same,"Plant response rating, Pigweed",[12]; [26],20
same,"Pigweed plant response rating (0 to 100 scale, 0 is no effect, 100 is complete control)",[12]; [27],40
same,"Plant response rating, Foxtail, Giant",[13]; [26],90
same,"Foxtail, Giant plant response rating (0 to 100 scale, 0 is no effect, 100 is complete control)",[13]; [27],90
same,"Plant response rating, Kochia",Kochia (Kochia scoparia) [14]; [26],70
same,"Kochia plant response rating (0 to 100 scale, 0 is no effect, 100 is complete control)",Kochia (Kochia scoparia) [14]; [27],80
same,"Plant response rating, Ryegrass, Italian",[15]; [26],0
same,"Ryegrass, Italian plant response rating (0 to 100 scale, 0 is no effect, 100 is complete control)",[15]; [27],30
same,"Plant response rating, Barnyardgrass",[16]; 500 g ai/ha,75
same,"Plant response rating, Ducksalad",[17]; 500 g ai/ha,100
same,"Plant response rating, Sedge, Umbrella",[18]; 500 g ai/ha,0
same,"Plant response rating, Rice",rice (Oryra sativa); 500 g ai/ha,15
same,"Plant response rating, Ragweed",[19]; 31 g ai/ha,0
same,"Plant response rating, Ragweed",[19]; 62 g ai/ha,30
same,"Plant response rating, Ragweed",[19]; 125 g ai/ha,40
same,"Plant response rating, Ragweed",[19]; 250 g ai/ha,60
